Measured values reported in ChEMBL document CHEMBL1201862, “PubChem BioAssay data set” (2004).
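Grown in 96-well plates, cells were treated for 48 hours with each compound at five concentrations. Insufficient inhibition: endpoint recorded as highest concentration tested. At the GI50, growth is halved.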 Active and inactive are the calls of the source. Rule as the data show it: active = GI50 up to about 1.1 µM and inactive = higher.

How the values were obtained:
Test in all cases: NCI anticancer screen, dose series, 48 h
ACHN = system: ACHN
SNB-75 = system: SNB-75
M14 = system: M14
RPMI-8226 = system: RPMI-8226
UO-31 = system: UO-31
MDA-MB-231 = system: MDA-MB-231
HCT-15 = system: HCT-15
SNB-19 = system: SNB-19
K562 = system: K562
HOP-92 = system: HOP-92
SK-MEL-2 = system: SK-MEL-2
HOP-62 = system: HOP-62
HOP-18 = system: HOP-18
SK-OV-3 = system: SK-OV-3
A549 = system: A549
KM-20L2 = system: KM-20L2
RXF 393 = system: RXF 393
DMS-114 = system: DMS-114
SR = system: SR
NCI-H522 = system: NCI-H522

## COc1c(C=O)c2c(c(OC)c1OC)-c1ccc(OC)c(=O)cc1[C@@H](NC(C)=O)CC2
ACHN
  GI50: 1.17 µM (inactive)
SNB-75
  GI50: 0.0254 µM (active)
M14
  GI50: 0.051 µM (active)
RPMI-8226
  GI50: < 0.01 µM (active)
UO-31
  GI50: 11.5 µM (inactive)
MDA-MB-231
  GI50: 0.352 µM (active)
HCT-15
  GI50: 0.849 µM
SNB-19
  GI50: 0.144 µM (active)
K562
  GI50: < 0.0126 µM (active)
HOP-92
  GI50: 0.0288 µM (active)
SK-MEL-2
  GI50: 0.0313 µM (active)
HOP-62
  GI50: 0.36 µM (active)
HOP-18
  GI50: 21.6 µM (inactive)
SK-OV-3
  GI50: 1.2 µM (inactive)
A549
  GI50: 0.437 µM (active)
KM-20L2
  GI50: 0.0364 µM (active)
RXF 393
  GI50: 0.148 µM (active)
DMS-114
  GI50: < 0.0146 µM (active)
SR
  GI50: < 0.01 µM (active)
NCI-H522
  GI50: 0.0123 µM (active)

## CCc1cccc(CC)c1NC(=S)NC(=O)c1ccc(Br)cc1
ACHN
  GI50: 32.4 µM (inactive)
SNB-75
  GI50: 26.4 µM (inactive)
M14
  GI50: 26.8 µM (inactive)
RPMI-8226
  GI50: 33.1 µM (inactive)
UO-31
  GI50: 26.3 µM (inactive)
MDA-MB-231
  GI50: 29 µM (inactive)
HCT-15
  GI50: 33.7 µM
SNB-19
  GI50: 40.9 µM (inactive)
K562
  GI50: 40.7 µM (inactive)
HOP-92
  GI50: 18.5 µM (inactive)
SK-MEL-2
  GI50: 18.6 µM (inactive)
HOP-62
  GI50: 32.4 µM (inactive)
HOP-18
  GI50: 49.9 µM (inactive)
SK-OV-3
  GI50: 64.9 µM (inactive)
A549
  GI50: 32.8 µM (inactive)
KM-20L2
  GI50: 47.5 µM (inactive)
RXF 393
  GI50: 19.1 µM (inactive)
DMS-114
  GI50: 28.2 µM (inactive)
SR
  GI50: 20.3 µM (inactive)
NCI-H522
  GI50: 17.6 µM (inactive)

## Cn1nnc2c(C(N)=O)ncn2c1=O [TEMOZOLOMIDE]
ACHN
  GI50: > 100 µM (inactive)
SNB-75
  GI50: 71 µM (inactive)
M14
  GI50: > 100 µM (inactive)
RPMI-8226
  GI50: > 100 µM (inactive)
UO-31
  GI50: > 74 µM (inactive)
MDA-MB-231
  GI50: > 100 µM (inactive)
HCT-15
  GI50: > 100 µM
SNB-19
  GI50: > 100 µM (inactive)
K562
  GI50: 75.9 µM (inactive)
HOP-92
  GI50: > 100 µM (inactive)
SK-MEL-2
  GI50: > 100 µM (inactive)
HOP-62
  GI50: > 100 µM (inactive)
HOP-18
  GI50: > 100 µM (inactive)
SK-OV-3
  GI50: 58.7 µM (inactive)
A549
  GI50: > 100 µM (inactive)
KM-20L2
  GI50: > 100 µM (inactive)
RXF 393
  GI50: > 100 µM (inactive)
DMS-114
  GI50: > 100 µM (inactive)
SR
  GI50: > 100 µM (inactive)
NCI-H522
  GI50: > 100 µM (inactive)
